Source: patent US11576891B2, “Methods of treating or preventing estrogen-related diseases” (ENDORECHERCHE, INC., priority 2010, dated 2023)
Entries after “also recorded” stand apart in the source; their conditions may differ. Marks after values point to notes of the source that are not given here.

How the values were obtained:
[1] = test system: human endometrial Ishikawa carcinoma cells; conditions: cited from earlier work
postmenopausal women = assay: serum lipids in postmenopausal women given oral EM-800; type: in vivo, human
rat = assay: biochemical parameters of bone metabolism in rats treated with DHEA and/or EM-800; type: in vivo; conditions: for SERUM TALP (alkaline phosphatase) / URINE CALCIUM / URINE HP/Cr (hydroxyproline/creatinine ratio) / URINE PHOSPHORUS: DHEA 10 mg percutaneously, EM-800 75 μg orally, once daily; for decrease of urinary hydroxyproline/creatinine ratio, marker of bone resorption / increase of serum alkaline phosphatase activity, marker of bone formation: versus control
Source text: Data are expressed as the means±SEM. **: P<0.01 experimental versus respective control.
It is particularly important to indicate that the combination of DHEA and EM-800 exerts unexpected beneficial effects on important biochemical parameters of bone metabolism. […] Moreover, no effect of DHEA alone could be detected on daily urinary calcium or phosphorus excretion (Luo, Sourla et al. 1997). EM-800, on the other hand, decreased the urinary hydroxyproline/creatinine ratio by 48% while, similarly to DHEA, no effect of EM-800 was seen on urinary calcium or phosphorus excretion. EM-800, moreover, had no effect on serum alkaline phosphatase activity, a marker of bone formation while DHEA increased the value of the parameter by about 75% (Luo, Sourla et al. 1997) (Table 2).
Thus, the addition of DHEA to EM-800 increases by 50% of the inhibitory effect of EM-800 on bone reabsorption.

ovariectomized rat = conditions: rat after ovariectomy; cited from earlier work
[2] = test system: postmenopausal women suffering from vaginal atrophy; conditions: daily intravaginal, 3 months; cited from earlier work
ovariectomized rats = assay: bone histomorphometry after 12-month treatment of ovariectomized rats; type: in vivo, rat; conditions: 12 months
Description: (§1) FIG. 6 is a bar graph comparing the effect of 12-month treatment with dehydroepiandrosterone (DHEA) alone or in combination with Flutamide or EM-800 on trabecular bone volume in ovariectomized rats. Intact animals are added as additional controls. Data are presented as mean±SEM **p<0.01 versus OVX Control.
as §1, with “7” for “6”, “number of” for “bone volume in”
Note the reduced amount of trabecular bone (T) in ovariectomized control animals (B), and the significant increase in trabecular bone volume (T) induced after DHEA administration (C). […] Modified trichrome Masson-Goldner, magn.×80. T: Trabeculae, GP: Growth Plate.
Importantly, the combination of EM-800 and DHEA in ovariectomized rats treated for 12 months had beneficial effects on bone morphometry. Trabecular bone volume is particularly important for bone strength and to prevent bone fractures.

60- to 70-year-old women = conditions: cited from earlier work
solid state stability = type: physicochemical

CC1=C(c2ccc(OC(=O)C(C)(C)C)cc2)[C@H](c2ccc(OCCN3CCCCC3)cc2)Oc2cc(OC(=O)C(C)(C)C)ccc21 [EM-800, (S)-(+)-4-[7-(2,2-dimethyl-1-oxopropoxy)-4-methyl-2-[4-[2-(1-piperidinyl)-ethoxy]phenyl]-2H-1-benzopyran-3-yl]-phenyl 2,2-dimethylpropanoate]
antiestrogenic activity in Ishikawa cells [1]: pure antiestrogenic activity | decrease in total serum cholesterol (postmenopausal women; daily oral dose of 5, 10, 20 and 40 mg for 2 weeks): 10% | decrease in serum triglyceride levels (postmenopausal women; daily oral dose of 5, 10, 20 and 40 mg, at 1 week): 15% | effect on daily urinary calcium or phosphorus excretion (rat): no effect | SERUM TALP (alkaline phosphatase) (rat): 114.11 ± 11.26 IU/L | URINE CALCIUM (rat): 17.44 ± 4.5 μmol/24 h/100 g | URINE HP/Cr (hydroxyproline/creatinine ratio) (rat): 6.81 ± 0.84** μmol/mmol | URINE PHOSPHORUS (rat): 102.03 ± 25.13 μmol/24 h/100 g | decrease of urinary hydroxyproline/creatinine ratio, marker of bone resorption (rat): 48% | increase of serum alkaline phosphatase activity, marker of bone formation (rat): no effect | dose at which maximal effect on bone resorption is achieved (ovariectomized rat): 0.01 mg/kg

CC/C(=C(\c1ccccc1)c1ccc(OCCN(C)C)cc1)c1ccccc1 [Tamoxifen, (Z)-2-[4-(1,2-diphenyl-1-butenyl)phenoxy]-N,N-dimethylethanamine]
effect on estrogen-sensitive parameter alkaline phosphatase [1]: stimulate, to various degrees

C[C@]12CC[C@H](O)CC1=CC[C@@H]1[C@@H]2CC[C@]2(C)C(=O)CC[C@@H]12 [DHEA, dehydroepiandrosterone]
circulating estradiol or testosterone [2]: no change | domains of sexual dysfunction (desire, arousal, orgasm and pleasure) [2]: significant improvement | symptoms and signs of vaginal atrophy [2]: rapid and very marked improvement | effect on daily urinary calcium or phosphorus excretion (rat): no effect | SERUM TALP (alkaline phosphatase) (rat): 198.38 ± 30.76* IU/L | URINE CALCIUM (rat): 25.87 ± 3.54 μmol/24 h/100 g | URINE HP/Cr (hydroxyproline/creatinine ratio) (rat): 14.02 ± 1.59 μmol/mmol | URINE PHOSPHORUS (rat): 151.41 ± 14.57 μmol/24 h/100 g | decrease of urinary hydroxyproline/creatinine ratio, marker of bone resorption (rat): did not affect; also recorded: did not show any effect | increase of serum alkaline phosphatase activity, marker of bone formation (rat): about 75% | increase in trabecular bone number compared to ovariectomized controls (ovariectomized rats): 137% | trabecular bone number (ovariectomized rats): 1.27±0.1 per mm | trabecular bone volume of the tibia (ovariectomized rats): 11.9±0.6% | abdominal fat measurements (60- to 70-year-old women; 12 months): no significant change | body weight (60- to 70-year-old women; 12 months): no change | decrease in fasting plasma insulin levels (60- to 70-year-old women; 12 months): 17% | decrease in plasma bone alkaline phosphatase (60- to 70-year-old women; 12 months): 22% | decrease in subcutaneous skin fold thickness (60- to 70-year-old women; 12 months): 9.8% | decrease in urinary hydroxyproline (60- to 70-year-old women; 12 months): 38% | decrease of fasting plasma glucose (60- to 70-year-old women; 12 months): 12% | decrease of femoral fat (midthigh, computed tomography) (60- to 70-year-old women; 12 months): 3.8% | increase in bone mass density at the hip (60- to 70-year-old women; 12 months): 2.3% | increase in bone mass density at the hip Ward's triangle (60- to 70-year-old women; 12 months): 3.75% | increase in bone mass density at the lumbar spine level (60- to 70-year-old women; 12 months): 2.2% | increase in femoral muscular area (midthigh, computed tomography) (60- to 70-year-old women; 12 months): 3.5% | increase over control in plasma osteocalcin (60- to 70-year-old women; 12 months): 135% | plasma triglycerides (60- to 70-year-old women; 12 months): not affected | endometrium histology (60- to 70-year-old women; after 12 months, all women): remained completely atrophic | increase in index of sebum secretion (60- to 70-year-old women; after 12 months): 79% | women with stimulated vaginal epithelium maturation (60- to 70-year-old women; women with a maturation value of zero at onset of therapy): 8 out of 10

COc1ccc(-c2sc3cc(O)ccc3c2Oc2ccc(OCCN3CCCCC3)cc2)cc1.Cl [Arzoxifene, 6-hydroxy-3-[4-[2-(1-piperidinyl)ethoxy]phenoxyl]-2-(4-methoxyphenyl)benzo[b]thiophene hydrochloride]
effect on estrogen-sensitive parameter alkaline phosphatase [1]: stimulate, to various degrees

CC1=C(c2ccc(O)cc2)[C@H](c2ccc(OCCN3CCCCC3)cc2)Oc2cc(O)ccc21.Cl [EM-652.HCl, (S)-(+)-7-hydroxy-3-(4′-hydroxyphenyl)-4-methyl-2-(4″-(2′″-piperidinoethoxy)phenyl)-2H-1 benzopyran hydrochloride]
solid state stability (solid state stability): good solid state stability

CC/C(=C(/c1ccc(OCCN(C)C)cc1)c1cccc(O)c1)c1ccccc1 [Droloxifene, (E)-3-[1-[4-[2-(Dimethylamino)ethoxy]phenyl]-2-phenyl-1-butenyl]phenol]
effect on estrogen-sensitive parameter alkaline phosphatase [1]: stimulate, to various degrees

OCCOc1ccc(/C(=C(/CCCl)c2ccccc2)c2ccccc2)cc1 [Ospemifene, (Z)-2-[4-(4-chloro-1,2-diphenyl-1-butenyl)phenoxyl]ethanol]
effect on estrogen-sensitive parameter alkaline phosphatase [1]: stimulate, to various degrees

CC/C(=C(\c1ccc(I)cc1)c1ccc(OCCN2CCCC2)cc1)c1ccccc1 [Idoxifene, (E)-1-[2-[4-[1-(4-Iodophenyl)-2-phenyl-1-butenyl]phenoxy]ethyl]pyrrolidine]
effect on estrogen-sensitive parameter alkaline phosphatase [1]: stimulate, to various degrees

CN(C)CCOc1ccc(/C(=C(/CCCl)c2ccccc2)c2ccccc2)cc1 [Toremifene, (Z)-2-[4-(4-Chloro-1,2-diphenyl-1-butenyl)phenoxy]-N,N-dimethylethanamine]
effect on estrogen-sensitive parameter alkaline phosphatase [1]: stimulate, to various degrees

Cl.O=C(c1ccc(OCCN2CCCCC2)cc1)c1c(-c2ccc(O)cc2)sc2cc(O)ccc12 [Raloxifene, [2-(4-hydroxyphenyl)-6-hydroxybenzo[b]thien-3-yl][4-[2-(1-piperidinyl)ethoxy]phenyl]-methanone hydrochloride]
effect on estrogen-sensitive parameter alkaline phosphatase [1]: stimulate, to various degrees | dose at which maximal effect on bone resorption is achieved (ovariectomized rat): 0.1 mg/kg
